From PMC7770674, “A Combinative Assembly Strategy Inspired Reversibly Borate-Bridged Polymeric Micelles for Lesion-Specific Rapid Release of Anti-Coccidial Drugs” (Nano-Micro Letters, 2020)

Test system: Caco2 cells
Assay: In vitro cytotoxicity MTT assay
Format: cell-based, human
Conditions: DIC concentration 100 μg mL^−1, 48 h
Procedure: For cell studies, human colon cancer cell line Caco2 cells (Shanghai Institute of Biochemistry and Cell Biology, Chinese Academy of Sciences, Shanghai, China) were cultured in DMEM medium supplemented with 10% FBS, 100 U mL^−1 penicillin, and 100 μg mL^−1 streptomycin at 37 °C under an atmosphere of 5% CO2 and 95% relative humidity. In vitro cytotoxicity of free DIC, blank micelles and DIC-encapsulated micelles were evaluated by 3-(4,5-dimethylthiazol-2-yl)-2,5-diphenyltetrazolium bromide (MTT) assay. Caco2 cells were planted in 96-well plate at a density of 5 × 10^3 cells per well and cultured for another 24 h. The cells were treated with free DIC, PCS/DIC micelles, PCS + DIC mixture, SPCS/DIC micelles and SPCS + DIC mixture at a range of DIC concentrations (0.001–100 μg mL^−1), or PCS and SPCS blank micelles at equivalent concentrations of corresponding drug-loaded micelles for 48 h. Thereafter, 20 µL of MTT solution (5 mg mL^−1) was added to each well and incubated with cells for another 4 h at 37 °C. The culture medium was then removed, and the formed dark blue formazan crystals were dissolved with 100 µL of DMSO. The absorbance at 570 nm was recorded using a microplate reader (EL800, BIO-TEK Instruments Inc., USA). Untreated cells were used as control, and cell viability (%) was calculated according to Eq. (3).3 Cellviability(%)=Atest/Acontrol×100%

Q: How did the cells survived turn out when `N#CC(c1ccc(Cl)cc1)c1c(Cl)cc(-n2ncc(=O)[nH]c2=O)cc1Cl` (stereo not shown) [Free DIC, Diclazuril] was run?
A: less than 10%
